Results as given in paper PMC9011347, “Small-Molecule Inhibitors Targeting Lipolysis in Human Adipocytes” (Journal of the American Chemical Society, 2022).

Biological target: T1, mouse ATGL I69F/T146G double mutant (Mus musculus, UniProt Q8BJ56, I69F/T146G)
T1 construct: host or cells: Expi293 cells, cell lysate
Assay: TAG hydrolase assay, humanized mouse ATGL variants
Assay type: biochemical
Conditions: I69F/T146G double mutant of mouse ATGL
Text: The region between aa 60 and 146 of human and mouse ATGL comprises 12 nonidentical aa. We generated 3D homology models for the minimal active domain of mouse ATGL to obtain more detailed insight into the topology of the relevant region (Figure 5d). Based on this model, aa T101, C106, R109, N111, and S133 locate at peripheral (loop) regions (indicated in orange, Figure 5d). […] For all other nonidentical aa (indicated in magenta, Figure 5d), we generated variants with single aa substitutions. The humanized variants A60V, N68K, T93I, and C97F were inactivated by Ai but not NG-497 (Figure 5a).
Figure 6 Identification of the molecular scaffold determining species selectivity. (a) Schematic view of mouse ATGL variants, which are sensitive to NG-497 inhibition. Humanized aa are indicated in red and nonidentical aa are indicated in dark blue. (b) Dose-dependent inhibition of the I69F/T146G double mutant, the I69F/T93I/C97F/T146G quadruple mutant, and human ATGL. (c) Dose-dependent inhibition of triple mutants I69F/T93I/T146G and I69F/C97F/T146G, and human ATGL. IC50 values are shown in the insets. […]
Expression of recombinant ATGL constructs and preparation of cell lysates. […] Protein concentrations were determined using Bio-Rad protein assay (Bio-Rad 785, Bio-Rad Laboratories, Munich, Germany) using BSA as standard. […]

T1 sequence (Q8BJ56 whole entry I69F/T146G): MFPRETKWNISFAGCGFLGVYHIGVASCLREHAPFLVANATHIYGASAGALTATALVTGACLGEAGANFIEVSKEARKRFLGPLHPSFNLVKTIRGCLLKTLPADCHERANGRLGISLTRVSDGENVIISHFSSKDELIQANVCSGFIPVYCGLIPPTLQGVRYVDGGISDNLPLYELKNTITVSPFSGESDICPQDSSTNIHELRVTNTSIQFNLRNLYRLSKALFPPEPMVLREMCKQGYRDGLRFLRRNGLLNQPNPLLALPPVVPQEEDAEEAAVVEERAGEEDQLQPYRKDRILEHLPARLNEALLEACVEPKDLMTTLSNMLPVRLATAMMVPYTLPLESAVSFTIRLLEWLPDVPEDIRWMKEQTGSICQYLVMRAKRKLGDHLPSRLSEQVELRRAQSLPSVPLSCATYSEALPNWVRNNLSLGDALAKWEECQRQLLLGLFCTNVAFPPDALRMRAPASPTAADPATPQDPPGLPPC

CCOc1ccc(-c2cc(OC)cc(C(=O)OC(C)C)n2)cc1 [NG-497]
IC50: 9 µM
